Values quoted from earlier work as cited in article PMC4148150 (Journal of Medicinal Chemistry, 2014).

Conditions: mice, oral dosing

| Structure (SMILES) | PK-AUC [µM·h] |
| --- | --- |
| CC(=O)N1CCC(NC(=O)NC23CC4CC(CC(C4)C2)C3)CC1 [APAU, 1-(1-acetypiperidin-4-yl)-3-adamantanylurea] | 0.183 |
| CS(=O)(=O)N1CCC(NC(=O)Nc2ccc(OC(F)(F)F)cc2)CC1 [TUPS, 1-(1-methylsulfonyl-piperidin-4-yl)-3-(4-trifluoromethoxyphenyl)-urea] | 5.3 |
